From patent US9260759B2, “Pyrazoloanthrone and derivatives thereof for the treatment of cancers expressing MISRII” (The General Hospital Corporation, priority 2007, dated 2016)

Key:
c-jun = experiment: Western blot of anisomycin-induced c-jun phosphorylation in MOVCAR cells; assay type: cell-based, mouse
Protocol: The results are representative of several experiments.
Cells were washed in PBS and lysates were prepared in 1× Passive lysis buffer (PLB) provided with the Dual luciferase reporter assay kit (Promega). The lysates were cleared by centrifugation and the protein concentration was determined by Bradford assay (Bio-Rad, Hercules Calif.). […] of protein were loaded onto a NuPAGE 4-12% Bis-Tris gradient gel with MOPS-buffer (Invitrogen, Carlsbad Calif.) for polyacrylamide gel electrophoresis. Following transfer to a nitrocellulose by electroblotting, the membrane was blocked in 5% milk Tris-buffered saline/Tween20 (TBS-T) for 1 h at room temperature and incubated with primary antibody (pJNK, c-jun and phosph c-jun antibodies were purchased from Cell Signalling, Danvers, Mass.; amd JNK antibody was published from Santa Cruz Biotechnology, Calif.) overnight at 4° C. in 5% BSA followed by incubation with secondary horseradish peroxidase conjugated anti-rabbit antibody (Jackson ImmunoResearch, Westgrove Pa.) for 1 h. Immunoreactive proteins were detected by enhanced chemiluminescence (Pierce, Rockford Ill.). Anisomycin was purchased from Calbiochem.
The known Jun kinase activator anisomycin was used as a positive control (Hazzalin, 1998). […] Further, MIS had no effect on phosphorylation of JNK by anisomycin.

[1] = molecular target: T1, type II receptor for TGFβ (Homo sapiens, UniProt P37173); experiment: CAGA-promoter luciferase reporter in COS7 cells co-transfected with TGFβ type II receptor; assay type: cell-based; conditions: alone or in combination with the receptor-ligand, COS7 (data not shown)
T1 construct: expressed in transfected cells; host or cells: COS7
T1 sequence (P37173 23-567): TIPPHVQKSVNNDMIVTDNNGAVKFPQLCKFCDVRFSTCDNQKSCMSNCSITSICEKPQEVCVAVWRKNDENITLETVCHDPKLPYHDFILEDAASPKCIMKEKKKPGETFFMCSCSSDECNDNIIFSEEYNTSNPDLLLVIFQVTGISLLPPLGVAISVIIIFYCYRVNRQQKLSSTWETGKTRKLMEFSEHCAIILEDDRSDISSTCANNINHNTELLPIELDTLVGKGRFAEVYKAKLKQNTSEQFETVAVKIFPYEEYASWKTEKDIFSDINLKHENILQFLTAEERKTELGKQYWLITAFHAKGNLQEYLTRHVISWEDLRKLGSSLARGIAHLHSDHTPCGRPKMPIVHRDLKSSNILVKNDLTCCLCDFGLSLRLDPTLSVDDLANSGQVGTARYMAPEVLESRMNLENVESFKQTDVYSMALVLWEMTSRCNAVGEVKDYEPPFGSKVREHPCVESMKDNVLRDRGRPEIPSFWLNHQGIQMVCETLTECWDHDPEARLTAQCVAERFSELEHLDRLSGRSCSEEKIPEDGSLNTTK

O=C1c2ccccc2-c2n[nH]c3cccc1c23 [SP600125, anthra[1,9-cd]pyrazol-6(2H)-one]
c-jun phosphorylation induced by 500 nM anisomycin (c-jun; pre-treatment 10 uM SP600125): marginal and inconsistent inhibition
c-jun phosphorylation induced by 500 nM anisomycin (c-jun; pre-treatment 25 uM): inhibition of c-jun phosphorylation
effect on CAGA-luciferase reporter [1]: did not have any significant effect
